Measured values taken from patent publication US10028942B2 (priority 2013, dated 2018).

Molecular target: T1, DLK (Homo sapiens, UniProt Q12852)
T1 sequence (Q12852 1-520): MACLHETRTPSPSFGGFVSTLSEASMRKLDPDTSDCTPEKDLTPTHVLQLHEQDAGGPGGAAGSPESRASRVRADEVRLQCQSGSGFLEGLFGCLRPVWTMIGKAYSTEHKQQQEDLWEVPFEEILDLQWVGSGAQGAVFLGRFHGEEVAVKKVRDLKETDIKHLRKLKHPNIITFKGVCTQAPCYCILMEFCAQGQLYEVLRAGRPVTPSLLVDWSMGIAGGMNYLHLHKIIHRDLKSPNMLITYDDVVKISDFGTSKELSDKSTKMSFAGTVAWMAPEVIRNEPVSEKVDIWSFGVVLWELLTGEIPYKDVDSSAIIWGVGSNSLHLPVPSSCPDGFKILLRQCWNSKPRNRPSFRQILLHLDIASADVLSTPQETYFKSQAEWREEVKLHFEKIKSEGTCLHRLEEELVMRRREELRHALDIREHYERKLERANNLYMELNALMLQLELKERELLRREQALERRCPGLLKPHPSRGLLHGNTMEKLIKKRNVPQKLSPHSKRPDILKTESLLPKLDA
Details: read-out: DLK (Ki) μM; TR-FRET; 5 nM GST-tagged DLK (catalytic domain aa 1-520), 40 nM HIS-MKK4 K131M substrate, 30 μM ATP, 60 minutes

Row | Ki [µM] | SMILES
1 | 0.0049 | CC(C)n1nc(-c2cnc(N)c(C(F)(F)F)c2)cc1[C@H]1[C@@H]2CN(S(C)(=O)=O)C[C@@H]21 [Compound 108, 5-(1-isopropyl-5-((1R,5S,6r)-3-(meth-ylsulfonyl)-3-azabicyclo[3.1.0]hex-an-6-yl)-1H-pyrazol-3-yl)-3-(trifluoro-methyl)pyridin-2-amine]
2 | 0.001 | CC(C)n1nc(-c2cnc(N)c(C(F)(F)F)c2)cc1[C@H]1[C@@H]2CN(CC(F)F)C[C@@H]21 [Compound 109, 5-(5-((1R,5S,6r)-3-(2,2-difluoroethyl)-3-azabicyclo[3.1.0]hexan-6-yl)-1-isopropyl-1H-pyrazol-3-yl)-3-(trifluoro-methyl)pyridin-2-amine]
3 | 0.0045 | CC(C)n1nc(-c2cnc(N)c(OC(F)F)c2)cc1[C@H]1[C@@H]2CN(CC(F)(F)F)C[C@@H]21 [Compound 110, 3-(difluoromethoxy)-5-(1-isopropyl-5-((1R,5S,6r)-3-(2,2,2-trifluoroethyl)-3-azabicyclo[3.1.0]hexan-6-yl)-1H-pyrazol-3-yl)pyridin-2-amine]
4 | 0.18 | Nc1ncc(-c2cc([C@H]3[C@@H]4CN(CC(F)(F)F)C[C@@H]43)n(C3COC3)n2)cc1Cl [Compound 111, 3-chloro-5-(1-(oxetan-3-yl)-5-((1R,5S, 6r)-3-(2,2,2-trifluoroethyl)-3-azabi-cyclo[3.1.0]hexan-6-yl)-1H-pyrazol-3-yl)pyridin-2-amine]
5 | 0.064 | N#Cc1cc(-c2cc([C@H]3[C@@H]4CN(CC(F)(F)F)C[C@@H]43)n(CC3CC3)n2)cnc1N [Compound 113, 2-amino-5-(1-(cyclopropylmethyl)-5-((1R,5S,6r)-3-(2,2,2-trifluoroethyl)-3-azabicyclo[3.1.0]hexan-6-yl)-1H-pyrazol-3-yl)nicotinonitrile]
6 | 0.96 | CC(C)n1nc(-c2cnc(N)c3cn[nH]c23)cc1[C@H]1[C@@H]2CN(CC(F)(F)F)C[C@@H]21 [Compound 114, 7-(1-isopropyl-5-((1R,5S,6r)-3-(2,2,2-trifluoroethyl)-3-azabicyclo[3.1.0]hexan-6-yl)-1H-pyrazol-3-yl)-1H-py-razolo[4,3-c]pyridin-4-amine]
7 | 0.0056 | CC(=O)N1C[C@@H]2[C@H](C1)[C@H]2c1cc(-c2cnc(N)c(C(F)(F)F)c2)nn1C(C)C [Compound 115, 1-((1R,5S,6r)-6-(3-(6-amino-5-(trifluoro-methyl)pyridin-3-yl)-1-isopropyl-1H-pyrazol-5-yl)-3-azabicyclo[3.1.0]hexan-3-yl)ethanone]
8 | 0.0094 | COCCN1C[C@@H]2[C@H](C1)[C@H]2c1cc(-c2cnc(N)c(C(F)(F)F)c2)nn1C(C)C [Compound 117, 5-(1-isopropyl-5-((1R,5 S,6r)-3-(2-methoxyethyl)-3-azabicyclo[3.1.0]hexan-6-yl)-1H-pyrazol-3-yl)-3-(trifluoromethyl)pyridin-2-amine]
9 | 0.034 | COCCN1C[C@@H]2[C@H](C1)[C@H]2c1cc(-c2cnc(N)c(Cl)c2)nn1C(C)C [Compound 118, 3-chloro-5-(1-isopropyl-5-((1R,5S,6r)-3-(2-methoxyethyl)-3-azabicyclo[3.1.0]hexan-6-yl)-1H-pyrazol-3-yl) pyridin-2-amine]
10 | 0.0055 | COCCN1C[C@@H]2[C@H](C1)[C@H]2c1cc(-c2cnc(N)c(OC(F)F)c2)nn1C(C)C [Compound 119, 3-(difluoromethoxy)-5-(1-isopropyl-5-((1R,5S,6r)-3-(2-methoxyethyl)-3-azabicyclo[3.1.0]hexan-6-yl)-1H-py-razol-3-yl)pyridin-2-amine]
11 | 0.03 | COCCN1C[C@@H]2[C@H](C1)[C@H]2c1cc(-c2cnc(N)c(Cl)c2)nn1CC(C)C [Compound 120, 3-chloro-5-(1-isobutyl-5-((1R,5S,6r)-3-(2-methoxyethyl)-3-azabicyclo[3.1.0]hexan-6-yl)-1H-pyrazol-3-yl)pyri-din-2-amine]
